target: T1, HIV-integrase (Human immunodeficiency virus type 1 group M subtype B, UniProt P12497); assay: HIV-Integrase Inhibition Activity (SPA bead integration assay with P33 labeled target DNA); type: biochemical; settings: recombinant integrase, class symbols; read-out: in vitro activity
T1 construct: Recombinant integrase (0.26 ng) was incubated with the beads
Procedure, shortened: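 Strand integration read as bead-proximity CPM after P33 target DNA (0.1 fmol) and inhibitor were added to washed integrase–substrate DNA complexes on SPA beads. Enzyme bound 90 min at 37° C; EDTA (10 mM final) terminated reaction; IC50 graded A/B/C.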

Row | Structure (SMILES) | IC50 [nM]
1 | CS(=O)(=O)N1[C@@H]2C[C@@H]2C[C@H]1C(=O)NC12CCC(CC1)Cn1c2nc(C(=O)NCc2ccc(F)cc2)c(O)c1=O [Example 294, 7,10-Ethanopyrimido[1,2-a]azepine-2-carboxamide, N-[(4-fluorophenyl)methyl]-4,6,7,8,9,10-hexahydro-3-hydroxy-10-[[[(1R,3S,5R)-2-(methylsulfonyl)-2-azabicyclo[3.1.0]hex-3-yl]carbonyl]amino]-4-oxo-] | < 10
2 | Cc1cc(CNC(=O)c2nc3n(c(=O)c2O)CC2CCC3(NC(=O)c3cccnc3)CC2)ccc1F [Example 312, 7,10-Ethanopyrimido[1,2-a]azepine-2-carboxamide, N-[(4-fluoro-3-methylphenyl)methyl]-4,6,7,8,9,10-hexahydro-3-hydroxy-4-oxo-10-[(3-pyridinylcarbonyl)amino]-] | < 10
3 | CN(CCF)C(=O)C(=O)NC12CCC(CC1)Cn1c2nc(C(=O)NCc2ccc(F)cc2)c(O)c1=O [Example 52, N′-(2-((4-Fluorobenzyl)carbamoyl)-3-hydroxy-4-oxo-6,7,8,9-tetrahydro-7,10-ethanopyrimido[1,2-a]azepin-10(4H)-yl)-N-(2-fluoroethyl)-N-methylethanediamide] | < 10
4 | COCCOC12CCC(CC1)Cn1c2nc(C(=O)NCc2ccc(F)cc2)c(O)c1=O [Example 225, 7,10-Ethanopyrimido[1,2-a]azepine-2-carboxamide, N-[(4-fluorophenyl)methyl]-4,6,7,8,9,10-hexahydro-3-hydroxy-10-(2-methoxyethoxy)-4-oxo-] | < 10
5 | CO[C@H]1C[C@@H](C(=O)NC23CCC(CC2)Cn2c3nc(C(=O)NCc3ccc(F)cc3)c(O)c2=O)N(S(C)(=O)=O)C1 [Example 272, 7,10-Ethanopyrimido[1,2-a]azepine-2-carboxamide, N-[(4-fluorophenyl)methyl]-4,6,7,8,9,10-hexahydro-3-hydroxy-10-[[[(2S,4S)-4-methoxy-1-(methylsulfonyl)-2-pyrrolidinyl]carbonyl]amino]-4-oxo-] | < 10
6 | CN(C)C(=O)C(=O)NC12CCC(CC1)Cn1c2nc(C(=O)NC2CCN(Cc3ccccc3)C2)c(O)c1=O (stereo not shown) [Example 356] | > 100
7 | O=C(NC12COC(CCn3c1nc(C(=O)NCc1ccc(F)cc1)c(O)c3=O)C2)OCc1ccccc1 (stereo not shown) [Example 217, Benzyl (2-((4-fluorobenzyl)carbamoyl)-3-hydroxy-4-oxo-7,8-dihydro-4 H,6H-8,11-methanopyrimido[2,1-d][1,5]oxazocin-11(10H)-yl)carbamate] | < 10
8 | CN(C)C(=O)C(=O)NC12CCC(CC1)Cn1c2nc(C(=O)NCCc2ccc(F)cc2)c(O)c1=O [Example 358] | 10 to 100
9 | CNC(=O)C(=O)NC12CCC(CC1)Cn1c2nc(C(=O)NCc2ccc(F)cc2)c(O)c1=O [Example 61, N-(2-((4-Fluorobenzyl)carbamoyl)-3-hydroxy-4-oxo-6,7,8,9-tetrahydro-7,10-ethanopyrimido[1,2-a]azepin-10(4H)-yl)-N′-methylethanediamide] | < 10
10 | COC(=O)N1CCCC1C(=O)NC12CCC(CC1)Cn1c2nc(C(=O)NCc2ccc(F)cc2)c(O)c1=O (stereo not shown) [Example 406] | < 10
11 | CN(C)C(=O)C(=O)NC12CCC(CC1)Cn1c2nc(C(=O)NCc2cccc(-n3cccc3)c2)c(O)c1=O [Example 126, N′-(3-Hydroxy-4-oxo-2-((3-(1H-pyrrol-1-yl)benzyl)carbamoyl)-6,7,8,9-tetrahydro-7,10-ethanopyrimido[1,2-a]azepin-10(4H)-yl)-N,N-dimethylethanediamide] | < 10
12 | O=C1CC[C@@H](C(=O)NC23CCC(CC2)Cn2c3nc(C(=O)NCc3ccc(F)cc3)c(O)c2=O)N1 [Example 46, N-(4-Fluorobenzyl)-3-hydroxy-4-oxo-10-((5-oxoprolyl)amino)-4,6,7,8,9,10-hexahydro-7,10-ethanopyrimido[1,2-a]azepine-2-carboxamide] | < 10
13 | CS(=O)(=O)N1CCN(C(=O)C(=O)NC23CCC(CC2)Cn2c3nc(C(=O)NCc3ccc(F)cc3)c(O)c2=O)CC1 [Example 76, N-(4-Fluorobenzyl)-3-hydroxy-10-(((4-(methylsulfonyl)-1-piperazinyl)(oxo)acetyl)amino)-4-oxo-4,6,7,8,9,10-hexahydro-7,10-ethanopyrimido[1,2-a]azepine-2-carboxamide] | < 10
14 | COc1cccc(CNC(=O)c2nc3n(c(=O)c2O)CC2CCC3(NC(=O)C(=O)N(C)C)CC2)c1OC [Example 381] | < 10
15 | CN(C)C(=O)C(=O)NC12CCC(CC1)Cn1c2nc(C(=O)NCc2nc3ccccc3s2)c(O)c1=O [Example 360] | < 10
16 | CN(C)C(=O)C(=O)NC12CCC(CC1)Cn1c2nc(C(=O)NCc2c[nH]c3ccccc23)c(O)c1=O [Example 235, Ethanediamide, N,N-dimethyl-N′-[6,7,8,9-tetrahydro-3-hydroxy-2-[[(1H-indol-3-ylmethyl)amino]carbonyl]-4-oxo-7,10-ethanopyrimido[1,2-a]azepin-10(4H)-yl]-] | < 10

Row | Structure (SMILES) | IC50 [nM]
17 | CN(C)C(=O)C(=O)N(C)C12CCC(CC1)Cn1c2nc(C(=O)NCc2ccc(F)c(F)c2)c(O)c1=O [Example 159, N-(2-((3,4-Difluorobenzyl)carbamoyl)-3-hydroxy-4-oxo-6,7,8,9-tetrahydro-7,10-ethanopyrimido[1,2-a]azepin-10(4H)-yl)-N,N′,N′-trimethylethanediamide] | < 10
18 | Cc1cc(CNC(=O)c2nc3n(c(=O)c2O)CC2CCC3(NC(=O)C(C)(C)n3cccn3)CC2)ccc1F [Example 281, 7,10-Ethanopyrimido[1,2-a]azepine-2-carboxamide, N-[(4-fluoro-3-methylphenyl)methyl]-4,6,7,8,9,10-hexahydro-3-hydroxy-10-[[2-methyl-1-oxo-2-(1H-pyrazol-1-yl)propyl]amino]-4-oxo-] | < 10
19 | Cc1cccc(S(=O)(=O)NC23CCC(CC2)Cn2c3nc(C(=O)NCc3ccc(F)cc3)c(O)c2=O)c1 [Example 391] | < 10
20 | CN(C)C(=O)C(=O)NC12CCC(CCn3c1nc(C(=O)NCc1ccc(F)cc1)c(O)c3=O)C2 (single isomer, unassigned) [Example 413, Ethanediamide, N′-[2-[[[(4-fluorophenyl)methyl]amino]carbonyl]-7,8,9,10-tetrahydro-3-hydroxy-4-oxo-8,11-methano-4H-pyrimido[1,2-a]azocin-11(6H)-yl]-N,N-dimethyl-] | < 10
21 | CN(C)C(=O)N1CCN(C(=O)C(=O)NC23CCC(CC2)Cn2c3nc(C(=O)NCc3ccc(F)cc3)c(O)c2=O)CC1 [Example 80, 10-(((4-(Dimethylcarbamoyl)-1-piperazinyl)(oxo)acetyl)amino)-N-(4-fluorobenzyl)-3-hydroxy-4-oxo-4,6,7,8,9,10-hexahydro-7,10-ethanopyrimido[1,2-a]azepine-2-carboxamide] | < 10
22 | O=C(NC12CCC(CC1)Cn1c2nc(C(=O)NCc2ccc(F)cc2)c(O)c1=O)C(=O)N1CCN(C(=O)c2ccccn2)CC1 [Example 140, N-(4-Fluorobenzyl)-3-hydroxy-4-oxo-10-((oxo(4-(2-pyridinylcarbonyl)-1-piperazinyl)acetyl)amino)-4,6,7,8,9,10-hexahydro-7,10-ethanopyrimido[1,2-a]azepine-2-carboxamide] | < 10
23 | O=C(NC12CCC(CC1)Cn1c2nc(C(=O)NCc2ccc(F)cc2)c(O)c1=O)C(=O)N1CCN(C(=O)c2cccs2)CC1 [Example 142, N-(4-Fluorobenzyl)-3-hydroxy-4-oxo-10-((oxo(4-(2-thiophenylcarbonyl)-1-piperazinyl)acetyl)amino)-4,6,7,8,9,10-hexahydro-7,10-ethanopyrimido[1,2-a]azepine-2-carboxamide] | < 10
24 | CN(C)C(=O)C(=O)NC12CCC(C)(CC1)Cn1c2nc(C(=O)NCc2ccc(F)cc2)c(O)c1=O [Example 180, Ethanediamide, N′-[2-[[[(4-fluorophenyl)methyl]amino]carbonyl]-6,7,8,9-tetrahydro-3-hydroxy-7-methyl-4-oxo-7,10-ethanopyrimido[1,2-a]azepin-10(4H)-yl]-N,N-dimethyl-] | < 10
25 | C=C[C@@H]1C[C@]1(NC(C)=O)C(=O)NC12CCC(CC1)Cn1c2nc(C(=O)NCc2ccc(F)cc2)c(O)c1=O [Example 277, 7,10-Ethanopyrimido[1,2-a]azepine-2-carboxamide, 10-[[[(1R,2S)-1-(acetylamino)-2-ethenylcyclopropyl]carbonyl]amino]-N-[(4-fluorophenyl)methyl]-4,6,7,8,9,10-hexahydro-3-hydroxy-4-oxo-] | 10 to 100
26 | O=C(NC12CCC(CC1)Cn1c2nc(C(=O)NCc2ccc(F)cc2)c(O)c1=O)c1ccccc1 [Example 36, N-(4-Fluorobenzyl)-3-hydroxy-4-oxo-10-((phenylcarbonyl)amino)-4,6,7,8,9,10-hexahydro-7,10-ethanopyrimido[1,2-a]azepine-2-carboxamide] | < 10
27 | CN(C)C(=O)C(=O)NC12CCC(CC1)Cn1c2nc(C(=O)NCCc2ccc(O)cc2)c(O)c1=O [Example 347] | > 100
28 | CN(C)C(=O)C(=O)NC12CCC(CC1)Cn1c2nc(C(=O)NCc2ccccc2OC(F)(F)F)c(O)c1=O [Example 386] | < 10
29 | CN(C)C(=O)C(=O)NC12CCC(CC1)Cn1c2nc(C(=O)NCCOc2ccccc2)c(O)c1=O [Example 355] | < 10
30 | CN(C)C(=O)C(=O)NC12CCC(CCn3c1nc(C(=O)NCc1ccc(F)c(F)c1)c(O)c3=O)C2 (stereo not shown) [Example 214, Ethanediamide, N′-[2-[[[(3,4-difluorophenyl)methyl]amino]carbonyl]-7,8,9,10-tetrahydro-3-hydroxy-4-oxo-8,11-methano-4H-pyrimido[1,2-a]azocin-11(6H)-yl]-N,N-dimethyl] | < 10
31 | COc1c(C(=O)NCc2ccc(F)cc2)nc2n(c1=O)CC1CCC2(NC(=O)CCC(=O)O)CC1 [Example 308, Butanoic acid, 4-[[2-[[[(4-fluorophenyl)methyl]amino]carbonyl]-6,7,8,9-tetrahydro-3-methoxy-4-oxo-7,10-ethanopyrimido[1,2-a]azepin-10(4H)-yl]amino]-4-oxo-] | > 100

From patent US8129398B2 (priority 2008, dated 2012)
